Holding throughout (assay type): in vivo
Data set [1] deals with Digitaria sanguinalis (DIGSA). Kind of data set: Herbicidal post-emergence action. The settings on record: 320 g/ha, assessed after ca. 3 weeks. Put shortly: (§1)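 Weeds grown in sandy loam in the greenhouse were sprayed post-emergence at the single-leaf stage, 2 to 3 weeks after sowing, with WP or EC formulations in water plus 0.5% additive at 600 l water/ha, at rates of 1280 g/ha or 320 g/ha. Damage was scored visually after ca. 3 weeks against untreated controls (0% = as control, 100% = plants dead).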

For data set [2], the system named is Avena fatua (AVEFA). Kind of data set: Herbicidal post-emergence action. The settings on record: assessed after ca. 3 weeks. The method, boiled down:
as §1

Data set [3] has as its system Echinochloa crus-galli (ECHCG). Kind of data set: Herbicidal post-emergence action. The settings on record: assessed after ca. 3 weeks. Put shortly: as §1
In data set [4] the test system is Lolium multiflorum (LOLMU). Kind of data set: Herbicidal post-emergence action. The settings on record: assessed after ca. 3 weeks. Put shortly: as §1
In data set [5] the test system is Alopecurus myosuroides (ALOMY). Kind of data set: Herbicidal post-emergence action. The settings on record: assessed after ca. 3 weeks. The method, boiled down:
as §1

For data set [6], the system named is Brassica napus (BRSNW). Kind of data set: Post-emergence effects on crop plants. The note with it: application rate 320 g/ha, crop plant Brassica napus (BRSNW). The text has this:
(§2) Seeds of mono- and dicotyledonous weed plants and crop plants were sown, in plastic or organic planting pots, in sandy loam, covered with soil and grown in a greenhouse under controlled growth conditions. 2 to 3 weeks after sowing, the test plants were sprayed in the single-leaf stage. The compounds according to the invention, formulated in form of wettable powders (WP) or as emulsifiable concentrates (EC), were sprayed onto the green plant parts as aqueous suspension or emulsion, with the addition of 0.5% of an additive, at an application rate of 600 1 of water/ha (converted). The test plants were placed in the greenhouse for ca. 3 weeks under optimum growth conditions, and then the effect of the preparations was assessed visually in comparison with untreated controls (herbicidal effect in percent (%): 100% effect=plants have died off, 0% effect=as control plants).
(§3) Tables D1 to D3 below show the effects of selected compounds of the general formula (I) according to table 1 on various crop plants and an application rate corresponding to 320 g/ha or below obtained by the experimental procedure mentioned above in biology section B.

The test system of data set [7] is Glycine max (GLXMA). Kind of data set: Post-emergence effects on crop plants. The settings on record: crop plant.
Source text: as §2, §3

The test system of data set [8] is Zea Mays (ZEAMX). Kind of data set: Post-emergence effects on crop plants. The settings on record: crop plant.
Source text: as §2, §3

In data set [9] the test system is Brassica napus (BRSNW). Kind of data set: Pre-emergence effects on crop plants. The note with it: 320 g/ha, crop plant. The text has this:
(§4) Seeds of mono- and dicotyledonous weed plants and crop plants were sown, in plastic or organic planting pots, in sandy loam and covered with soil. The compounds according to the invention, formulated in the form of wettable powders (WP) or as emulsifiable concentrates (EC), were applied to the surface of the covering soil as aqueous suspension or emulsion, with the addition of 0.5% of an additive, at an application rate of 600 1 of water/ha (converted).
(§5) Following treatment, the pots were placed in a greenhouse and kept under optimum growth conditions for the test plants. The visual grading of the damage to the test plants was carried out after ca. 3 weeks in comparison to untreated controls (herbicidal effect in percent (%): 100% effect=plants have died off, 0% effect=as control plants).
(§6) Tables C1 to C3 below show the effects of selected compounds of the general formula (I) according to table 1 on various crop plants and an application rate corresponding to 320 g/ha or below obtained by the experimental procedure mentioned above in biology section A.

For data set [10], the system named is Glycine max (GLXMA). Kind of data set: Pre-emergence effects on crop plants. The settings on record: crop plant.
Source text: as §4, §5, §6

Data set [11] has as its system Digitaria sanguinalis (DIGSA). Kind of data set: Herbicidal pre-emergence action. The note with it: 320 g/ha, graded after ca. 3 weeks. Put shortly:
(§7)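 Seeds sown in sandy loam and covered with soil; WP- or EC-formulated compounds applied to the covering soil surface as aqueous suspension/emulsion with 0.5% additive at 600 l water/ha, rates of 1280 g/ha or lower. Greenhouse growth; visual damage scored after ca. 3 weeks versus untreated controls (0–100%).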

Data set [12] relates to Avena fatua (AVEFA). Kind of data set: Herbicidal pre-emergence action. The settings on record: graded after ca. 3 weeks. Put shortly: as §7
In data set [13] the test system is Alopecurus myosuroides (ALOMY). Kind of data set: Herbicidal pre-emergence action. The settings on record: graded after ca. 3 weeks. Put shortly: as §7
Data set [14] concerns Setaria viridis (SETVI). Kind of data set: Herbicidal post-emergence action. The note with it: 1280 g/ha, assessed after ca. 3 weeks. The method, boiled down: as §1
Another data set relates to Lolium rigidum (LOLRI). Kind of data set: Herbicidal pre-emergence action. The note with it: 320 g/ha, graded after ca. 3 weeks. Put shortly:
as §7

The subject of data set [15] is Echinochloa crus-galli (ECHCG). Kind of data set: Herbicidal pre-emergence action. The settings on record: 1280 g/ha, graded after ca. 3 weeks. The method, boiled down: as §7
The subject of a further data set is Viola tricolor (VIOTR). Kind of data set: Herbicidal pre-emergence action. The settings on record: graded after ca. 3 weeks. Put shortly:
as §7

Data set [16] concerns Lolium multiflorum (LOLMU). Kind of data set: Herbicidal pre-emergence action. The note with it: 1280 g/ha, graded after ca. 3 weeks. The method, boiled down:
as §7

Data set [17] concerns Polygonum convolvulus (POLCO). Kind of data set: Herbicidal pre-emergence action. The note with it: graded after ca. 3 weeks. Put shortly: as §7
In data set [18] the test system is Cyperus esculentus (CYPES). Kind of data set: Herbicidal pre-emergence action. The note with it: 1280 g/ha, graded after ca. 3 weeks. Put shortly:
as §7

The test system of data set [19] is Setaria viridis (SETVI). Kind of data set: Herbicidal pre-emergence action. The settings on record: 1280 g/ha, graded after ca. 3 weeks. Put shortly: as §7
Data set [20] deals with Polygonum convolvulus (POLCO). Kind of data set: Herbicidal post-emergence action. The note with it: 1280 g/ha, assessed after ca. 3 weeks. Put shortly:
as §1

Data set [21] concerns Zea Mays (ZEAMX). Kind of data set: Pre-emergence effects on crop plants. The note with it: 320 g/ha, crop plant.
Source text: as §4, §5, §6

In the case of `Cn1ncnc1NC(=O)CC1CCC(=O)N1Cc1cccc(F)c1F` (racemic) [Example I-002], the “Post-emergence activity against DIGSA” value in data set [1] turned out to be 80%. The “Post-emergence activity against AVEFA” value in the data set on Avena fatua (AVEFA) [2] (320 g/ha) is listed as 80%. Besides, in data set [3] (320 g/ha), the “Post-emergence activity against ECHCG” value is 90%. The “Post-emergence activity against LOLMU” value in data set [4] (320 g/ha) was found to be 80%. Also, the “Post-emergence activity against ALOMY” value in data set [5] (320 g/ha) is listed as 80%. In the data set with Brassica napus (BRSNW) [6], the “post-emergence activity against BRSNW” value is recorded as 0%. Also, in the data set on Glycine max (GLXMA) [7] (80 g/ha), the “post-emergence activity against GLXMA (crop damage)” value is reported as 0%. In addition, the “post-emergence activity against ZEAMX (crop damage)” value with Zea Mays (ZEAMX) [8] (80 g/ha) and in the data set with Zea Mays (ZEAMX) [8] (320 g/ha) was 0% each time. Besides, the “pre-emergence activity against BRSNW (crop damage)” value with Brassica napus (BRSNW) [9] is listed as 0%. The “pre-emergence activity against GLXMA (crop damage)” value with Glycine max (GLXMA) [10] (320 g/ha) is reported as 0%. Moreover, the “Pre-emergence activity against DIGSA” value in [11] amounted to 80%. Further, the “Pre-emergence activity against AVEFA” value in the data set with Avena fatua (AVEFA) [12] (320 g/ha) was determined as 100%. Moreover, the “Pre-emergence activity against ALOMY” value in [13] (320 g/ha) worked out at 100%.
As for `CS(=O)(=O)CCOC(=O)CC1CCC(=O)N1Cc1cccc(F)c1F` (racemic) [Example I-009], in data set [1], the “Post-emergence activity against DIGSA” value is recorded as 80%. Further, the “Post-emergence activity against AVEFA” value with Avena fatua (AVEFA) [2] (1280 g/ha) is reported as 90%. For the same molecule, the “Post-emergence activity against ECHCG” value in [3] (1280 g/ha) is 100%. In data set [4] (1280 g/ha), the “Post-emergence activity against LOLMU” value came to 90%. The “Post-emergence activity against ALOMY” value in data set [5] (1280 g/ha) was found to be 80%. Also, the “Post-emergence activity against SETVI” value in the data set on Setaria viridis (SETVI) [14] was determined as 80%. In the data set on Brassica napus (BRSNW) [6], the “post-emergence activity against BRSNW” value was 20%. The “post-emergence activity against GLXMA (crop damage)” value in the data set with Glycine max (GLXMA) [7] (320 g/ha) is reported as 0%. For the same molecule, the “pre-emergence activity against BRSNW (crop damage)” value in the data set on Brassica napus (BRSNW) [9] is recorded as 0%. Besides, in the data set on Glycine max (GLXMA) [10] (80 g/ha), the “pre-emergence activity against GLXMA (crop damage)” value came out at 20%. Besides, the “Pre-emergence activity against LOLRI” value with Lolium rigidum (LOLRI) amounted to 80%. The “Pre-emergence activity against DIGSA” value in data set [11] came to 90%. In addition, the “Pre-emergence activity against AVEFA” value with Avena fatua (AVEFA) [12] (1280 g/ha) turned out to be 100%. Besides, the “Pre-emergence activity against ECHCG” value in [15] came out at 90%. Besides, the “Pre-emergence activity against VIOTR” value in the data set on Viola tricolor (VIOTR) (320 g/ha) amounted to 100%. The “Pre-emergence activity against LOLMU” value in [16] is given as 80%. Further, the “Pre-emergence activity against POLCO” value in data set [17] (320 g/ha) turned out to be 80%. Further, the “Pre-emergence activity against CYPES” value in data set [18] came out at 80%. Besides, in [13] (1280 g/ha), the “Pre-emergence activity against ALOMY” value came to 90%. Moreover, the “Pre-emergence activity against SETVI” value in the data set with Setaria viridis (SETVI) [19] is given as 80%.
`O=C(O)CC1CCC(=O)N1Cc1cccc(F)c1F` (stereo not shown) [Example I-003, 2-[1-[(2,3-difluorophenyl)methyl]-5-oxo-pyrrolidin-2-yl]acetic acid]: the “Post-emergence activity against AVEFA” value with Avena fatua (AVEFA) [2] (1280 g/ha) was found to be 90%. Besides, in data set [3] (1280 g/ha), the “Post-emergence activity against ECHCG” value was 90%. The “Post-emergence activity against LOLMU” value in data set [4] (1280 g/ha) amounted to 90%. Besides, the “Post-emergence activity against POLCO” value in data set [20] stood at 80%. Moreover, the “Post-emergence activity against ALOMY” value in [5] (1280 g/ha) worked out at 90%. For the same molecule, in the data set on Setaria viridis (SETVI) [14], the “Post-emergence activity against SETVI” value is 80%. Besides, the “post-emergence activity against BRSNW” value in the data set on Brassica napus (BRSNW) [6] was determined as 0%. For the same molecule, the “Pre-emergence activity against LOLRI” value in the data set on Lolium rigidum (LOLRI) stood at 80%. Further, the “Pre-emergence activity against DIGSA” value in data set [11] was determined as 90%. The “Pre-emergence activity against AVEFA” value in the data set with Avena fatua (AVEFA) [12] (1280 g/ha) came out at 90%. Further, in data set [15], the “Pre-emergence activity against ECHCG” value was found to be 80%. Moreover, the “Pre-emergence activity against VIOTR” value in the data set on Viola tricolor (VIOTR) (1280 g/ha) is 90%. The “Pre-emergence activity against LOLMU” value in data set [16] came to 90%. The “Pre-emergence activity against POLCO” value in [17] (1280 g/ha) amounted to 90%. The “Pre-emergence activity against ALOMY” value in data set [13] (1280 g/ha) is 90%. In addition, in the data set with Setaria viridis (SETVI) [19], the “Pre-emergence activity against SETVI” value stood at 80%.
Regarding `Cn1ncnc1NC(=O)CC1CCC(=O)N1Cc1cccc(F)c1F` (single isomer, unassigned) [Example I-075], the “Post-emergence activity against AVEFA” value in the data set on Avena fatua (AVEFA) [2] (1280 g/ha) is 100%. Further, the “post-emergence activity against BRSNW” value with Brassica napus (BRSNW) [6] is recorded as 0%. In addition, the “post-emergence activity against GLXMA (crop damage)” value with Glycine max (GLXMA) [7] (320 g/ha) is 0%. The “post-emergence activity against ZEAMX (crop damage)” value in the data set on Zea Mays (ZEAMX) [8] (320 g/ha) came out at 0%. The “pre-emergence activity against BRSNW (crop damage)” value in the data set with Brassica napus (BRSNW) [9] came to 0%. Also, in the data set on Glycine max (GLXMA) [10] (320 g/ha), the “pre-emergence activity against GLXMA (crop damage)” value is recorded as 0%. Further, the “pre-emergence activity against ZEAMX (crop damage)” value with Zea Mays (ZEAMX) [21] was 0%. Further, the “Pre-emergence activity against AVEFA” value in the data set with Avena fatua (AVEFA) [12] (320 g/ha) was found to be 90%.

These data come from US20240199542A1, “SUBSTITUTED PYRROLIDIN-2-ONES, SALTS THEREOF AND THEIR USE AS HERBICIDALLY ACTIVE SUBSTANCES” (Bayer Aktiengesellschaft, priority 2021, published 2024).
